The source of these data is ChEMBL document CHEMBL4431301, “The Medicinal Chemistry of Dengue Virus” (J Med Chem, 2016).

As usually defined, the EC50 is the concentration that produces a half-maximal response. As a reminder, the Ki is a measure of affinity in units of concentration, obtained from inhibition or displacement. The IC50 is the concentration that gives 50% inhibition.

Each structure is given as a SMILES string.

Series [1] deals with dengue virus type 3. As to the kind of experiment: Antiviral activity against Dengue virus 3 infected in african green monkey Vero E6 cells assessed as inhibition of viral yield after 72 hrs by flow cytometry. The class given is functional, organism-based. The note with it: Vero C1008, 72 h. (In flow cytometry, cells or beads pass a laser one at a time.)
Series [2] can be described thus: Drug uptake in C57BL/6 mouse kidney infected with Ebola virus at 3 mg/kg, iv administered 2 hrs prior to viral infection measured on day 2 and 5 post viral infection by mass spectrometry. Type of series: ADME, organism-based. The note with it: read-out: Drug uptake.
Series [3] is described as follows: Drug uptake in C57BL/6 mouse spleen infected with Ebola virus at 3 mg/kg, iv administered 2 hrs prior to viral infection measured on day 2 and 5 post viral infection by mass spectrometry. Type of series: ADME, organism-based. The note with it: read-out: Drug uptake.
For series [4], the system named is dengue virus type 1. The series is described as follows: Antiviral activity against Dengue virus 1 infected in african green monkey Vero E6 cells assessed as inhibition of viral yield after 72 hrs by flow cytometry. Type of series: functional, organism-based. The note with it: Vero C1008, 72 h.
The test system of series [5] is dengue virus type 4. The series is described as follows: Antiviral activity against Dengue virus 4 infected in african green monkey Vero E6 cells assessed as inhibition of viral yield after 72 hrs by flow cytometry. Type of series: functional, organism-based. The note with it: Vero C1008, 72 h.
For series [6], the system named is dengue virus type 2. As to the kind of experiment: Antiviral activity against Dengue virus 2 infected in african green monkey Vero E6 cells assessed as inhibition of viral yield after 72 hrs by flow cytometry. Type of series: functional, organism-based. The note with it: Vero C1008, 72 h.
Series [7] concerns the target T1, Genome polyprotein (dengue virus type 2, UniProt P29990). As to the kind of experiment: Mixed noncompetitive inhibition of the Dengue virus 2 NS2B-NS3 protease expressed in Escherichia coli using Boc-GRR-AMC as substrate assessed as enzyme-inhibitor complex after 30 mins by spectrofluorometry.
The target in series [8] is T1, Genome polyprotein. As to the kind of experiment: Mixed noncompetitive inhibition of the Dengue virus 2 NS2B-NS3 protease expressed in Escherichia coli using Boc-GRR-AMC as substrate assessed as enzyme-substrate-inhibitor complex after 30 mins by Michaelis-Menten plot analysis.
Series [9] deals with West Nile virus. As to the kind of experiment: Antiviral activity against West Nile virus Kunjin preincubated for 30 mins with virus followed by cell infection for 2 hrs measured after 3 days by crystal violet staining based plaque reduction assay. The class given is functional, organism-based.
The test system of series [10] is Yellow fever virus. The series is described as follows: Antiviral activity against Yellow fever virus 17D Vaccine preincubated for 30 mins with virus followed by cell infection for 2 hrs measured after 6 days by crystal violet staining based plaque reduction assay. Type of series: functional, organism-based. A general note: Plaques are areas of infected cells; plaque reduction assays count them against a control.

Series [11] can be described thus: Selectivity index, ratio of CC50 for african green monkey Vero cells to EC50 for Dengue virus 2 NGC. The class given is toxicity. The note with it: read-out: Ratio CC50/EC50.
Series [12] has as its system dengue virus type 2. The series is described as follows: Antiviral activity against Dengue virus 2 NGC preincubated for 30 mins with virus followed by cell infection for 2 hrs measured after 5 days by immunostaining based plaque reduction assay. The class given is functional, organism-based.
Series [13] has as its system West Nile virus. As to the kind of experiment: Antiviral activity against West Nile virus 3356 infected in african green monkey Vero cells assessed as reduction in viral titer after 42 hrs by plaque assay. The class given is functional, organism-based. The note with it: West Nile virus, 3356, Vero.
Series [14] relates to dengue virus type 1. The series is described as follows: Antiviral activity against Dengue virus 1 Western Pacific 74 infected in african green monkey Vero cells assessed as reduction in viral replication after 48 hrs by luciferase reporter gene assay. The class given is functional, organism-based. The note with it: Western Pacific 74, Vero. For orientation: In a reporter assay the amount or activity of a reporter protein is the signal.

T1 sequence (P29990 1346-1475 limits assumed): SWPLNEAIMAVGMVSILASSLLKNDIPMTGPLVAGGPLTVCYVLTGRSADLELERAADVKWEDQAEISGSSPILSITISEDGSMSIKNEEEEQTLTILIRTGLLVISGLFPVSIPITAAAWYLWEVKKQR
T1 sequence (P29990 1476-2093 limits assumed): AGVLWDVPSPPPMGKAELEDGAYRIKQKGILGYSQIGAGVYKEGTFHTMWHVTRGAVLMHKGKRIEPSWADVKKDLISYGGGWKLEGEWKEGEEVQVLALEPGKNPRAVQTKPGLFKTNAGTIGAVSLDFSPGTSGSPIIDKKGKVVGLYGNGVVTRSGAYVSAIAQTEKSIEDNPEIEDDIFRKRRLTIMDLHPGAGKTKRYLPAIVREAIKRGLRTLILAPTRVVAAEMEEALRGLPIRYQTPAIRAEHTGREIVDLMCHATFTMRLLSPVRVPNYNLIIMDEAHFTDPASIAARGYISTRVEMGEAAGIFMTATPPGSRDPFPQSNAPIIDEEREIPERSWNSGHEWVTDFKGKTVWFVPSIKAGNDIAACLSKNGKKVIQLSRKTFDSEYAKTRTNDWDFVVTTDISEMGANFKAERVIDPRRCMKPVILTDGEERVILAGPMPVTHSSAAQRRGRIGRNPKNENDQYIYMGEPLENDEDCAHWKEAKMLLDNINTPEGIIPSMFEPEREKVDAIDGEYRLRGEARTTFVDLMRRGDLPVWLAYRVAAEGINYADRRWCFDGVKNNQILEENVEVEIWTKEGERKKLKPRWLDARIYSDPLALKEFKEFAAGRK

Consider `Cc1cc(NCCCN(C)C)c2ccc3c(ccc4c(NCCCN(C)C)cc(C)nc43)c2n1`, for which the EC50 in series [1], in [4], in series [5] and in [6] was 0.4 to 0.9 µM throughout. The concentration at 2 h turned out to be 43100 ng/g in series [2] and 19500 ng/g in [3].

Regarding `O=C1Cc2ccc(F)cc2C[C@@H]1C1=Cc2ccc(F)cc2CC1`, the inhibition constant Ki in series [7] came out at 7 µM; in series [8], 15 µM.

On to `C/C(=N\Nc1ccccc1)c1sc(-c2cc(Cl)nc(Oc3ccc(Cl)cc3)c2)nc1C`, for which the IC50 in series [9] stood at 3.8 µM; in [10], 1.6 µM; in series [12] it was 1.2 µM. Also, the selectivity ratio in series [11] is above 83.

Regarding `O=C(c1ccccc1)N1N=C(c2cccs2)CC1c1ccc(Cl)cc1` (centres undefined), the EC50 in series [13] was 28 µM; in series [14], 17 µM.
